Data: patent US10064909B2, “Compositions and methods for chronic use of a weight-gaining compound” (priority 2015, dated 2018)

What was measured:
[1] = system: GH; experiment: 91-day cat safety study: serum GH; type: in vivo; conditions: cats, 6 mg/kg, compared to placebo controls; attenuated through Days 30, 59, 91
Description: (§1) This controlled study included two treatment groups with 4 adult cats receiving placebo (Group 1) and 8 adult cats receiving capromorelin (Formulation #9, as described above) (Group 2) for 91 consecutive days. All cats were offered food daily for a 6-hour period following an 11-day acclimation phase. All cats were weighed on Days −11, −1, 1, 14, 30, 59, 75, and 91. On Days 1 through 91, animals were orally administered capromorelin once daily via syringe at dose levels of 0 or 6 mg/kg. At one hour post-dose, all cats were offered food for a 6-hour period. Variables of interest included weight gain/loss, food consumption, clinical pathology, and serum analysis of IGF-1 and GH.
(§2) On Days 1, 30, 59, and 91, blood samples were collected prior to daily dose administration and at 8 hours post-dose and processed to serum for analysis of IGF-1 and GH levels. […] Serum chemistry parameters measured included albumin (ALB), creatine kinase (CK), albumin/globulin ratio (A\G), globulin (GLOB), alkaline phosphatase (ALP), glucose (GLU), fructosamine, alanine aminotransferase (ALT), blood urea nitrogen (BUN), phosphorus (PHOS), calcium (Ca), potassium (K), chloride (Cl), sodium (Na), cholesterol (CHOL), total protein (TP), creatinine (CRE), total bilirubin (TBIL), BUN/creatinine ratio, and sodium/potassium ratio.

[2] = system: IGF-1; experiment: 91-day cat safety study: serum IGF-1; type: in vivo; conditions: cats, 6 mg/kg, compared to placebo controls; sustained, peak at Day 30
Description: as §1, §2

[3] = Two-week oral toxicity study in cats; type: in vivo
Description: This study determined the safety of capromorelin when administered orally to cats. Groups of 3 male and 3 female (n=6/group) mixed breed cats were given capromorelin as an oral capsule once daily at doses of 9, 15, 30 and 60 mg/kg for 14 consecutive days. A similar group was given microcrystalline cellulose as a placebo control. All animals were observed daily for clinical signs and assessed for food consumption, with bodyweights recorded 7 days before dosing and again at euthanasia. Other measurements included periodic clinical pathology evaluations of hematology, serum chemistry and urinalysis. After the dosing period, cats were euthanized and necropsied.

[4] = Dose titration laboratory study (10 days): capromorelin serum levels; type: in vivo; conditions: cats
Description: (§3) This study defined a capromorelin oral solution dose regime that provides increased food intake and weight gain and the accompanying desired profile of IGF-1 serum levels. Laboratory adult cats were housed individually and divided into five groups (3/sex/group; n=6/group). Cats were dosed once daily for 10 consecutive days with either placebo, 1 mg/kg AT-002, 2 mg/kg AT-002, 3 mg/kg AT-002 or 4 mg/kg AT-002. The test article was a flavored solution formulation very similar to the final formulation. Study activities are summarized at Table 5.

[5] = system: IGF-1; experiment: Dose titration laboratory study (10 days): serum IGF-1; type: in vivo; conditions: cats
Description: as §3

[6] = Laboratory cats modelling CKD safety pilot study; type: in vivo
Source text: This study sought to define a capromorelin pharmacokinetic profile in serum of cats with compromised kidney function, to determine if accumulation of capromorelin in serum occurred after 14 days of treatment, and to observe cats for any potential adverse effects of treatment not seen in normal cats. The target population for the capromorelin oral solution included cats with CKD. Therefore, this study used laboratory with significant portions of their kidneys surgically removed and subsequently compromised kidney function indicated by increased serum creatinine and BUN. These cats were developed as a model by Charles River, and are maintained at a colony at their facility in Ballina, Ireland.
Sixteen cats with compromised kidney function were enrolled in the study and randomized to three groups. Animals assigned to Group 1 (n=6) were administered AT-002 once on Day 0 by intravenous catheter at a dose rate of 0.75 mg/kg per cat. Animals assigned to Group 2 (n=6) were administered the AT-002 daily for 14 days by subcutaneous injection at a dose rate of 2 mg/kg. Subcutaneous and intravenous treatment routes were used to assure that sufficient drug exposure occurred. Animals assigned to Group 3 (n=4) served as untreated controls.
Blood samples were collected for capromorelin and/or IGF-1 analysis from animals assigned to Group 1 on Study Day 0. Blood samples were also collected from animals assigned to Groups 2 and 3 on Study Days −1 and 13 (prior to dosing) for hematology and clinical chemistry analysis. Appetite was assessed by food intake and weight gain. Bodyweight measurements were performed on Days −7, −1 (all groups) and on Day 13 (Groups 2 and 3 only). Food intake was monitored from Day −7 to Day 13 inclusive for animals assigned to Groups 2 and 3. Animals were observed daily for clinical signs.

[7] = system: IGF-1; experiment: Pilot clinical field study: IGF-1 serum levels; type: in vivo, cats
Description: The key variable for the determination of effectiveness was bodyweight. Other effectiveness variables measured included body condition score, muscle condition score, quality of life assessments (unvalidated) and owner appetite assessments (unvalidated). Safety was assessed by physical examinations, clinical pathology testing (hematology and serum chemistry), urinalysis, serum IGF-1 levels and adverse event monitoring.

Question: With CN1N=C2CCN(C(=O)[C@@H](COCc3ccccc3)NC(=O)C(C)(C)N)C[C@@]2(Cc2ccccc2)C1=O.O=C(O)C(O)C(O)C(=O)O [capromorelin, N-[(2R)-1-[(3aR)-2-methyl-3-oxo-3a-(phenylmethyl)-6,7-dihydro-4H-pyrazolo[4,3-c]pyridin-5-yl]-1-oxo-3-(phenylmethoxy)propan-2-yl]-2-amino-2-methylpropanamide L-tartrate] as the molecule, how does the GH following treatment [1] read?
Answer: increased

Question: And the IGF-1 following treatment [2]?
Answer: increased

Question: And the NOAEL at 14 days ([3]; both sexes, mixed breed, cat, in vivo, cats, oral capsule once daily, 14 days, read-out: no-observed-adverse-effect-level (NOAEL))?
Answer: 15 mg/kg/day

Question: And the “30 mg/kg dose level relative to proposed clinically effective dose” value ([3]; cats)?
Answer: 15 times

Question: And the clinical pathology changes ([3]; cats, 15 to 60 mg/kg dosing groups, sporadic)?
Answer: increases in serum and urine glucose

Question: And the “clinical signs related to capromorelin” value ([3]; cats, 30 and 60 mg/kg treatment groups)?
Answer: emesis, sporadic salivation, and lethargy/depression

Question: What about the “tissue findings at necropsy (gross and microscopic)” value ([3]; cats, 14 days) of the same molecule?
Answer: not associated with any abnormal tissue findings

Question: And the tolerability ([3]; cats, oral capsule 9, 15, 30 and 60 mg/kg, 14 days)?
Answer: well tolerated

Question: What about the “mean absolute and relative liver weights” value ([3]; females 30 and 60 mg/kg, absolute liver weights in males at all dosages) of the same molecule?
Answer: increased

Question: And the “capromorelin accumulation in serum” value ([4]; 10 days once daily)?
Answer: no evidence of capromorelin accumulation

Question: And the “capromorelin serum concentrations by 8 hours post-dose” value ([4]; all AT-002 treated groups)?
Answer: very low levels

Question: What about the absorption ([4]; oral flavored solution) of the same molecule?
Answer: well absorbed

Question: What about the “time of maximum serum concentrations” value ([4]; oral solution 1-4 mg/kg, post-dose) of the same molecule?
Answer: ≤ 30 min

Question: And the “time of initial IGF-1 response (increase)” value ([5]; following treatment, Days 1 and 10)?
Answer: about 4 hours

Question: And the “duration of elevated IGF-1 levels post-dose” value ([5]; once-a-day dosing)?
Answer: 24 h

Question: What about the “time to maximum relatively steady IGF-1 level” value ([5]; post-dose, Days 1 and 10) of the same molecule?
Answer: ≤ 8 h

Question: And the bodyweight ([6]; Group 2, 2 mg/kg/day subcutaneous, Day -7 to Day 13)?
Answer: lost bodyweight

Question: What about the “appetite stimulation (food intake, bodyweight)” value ([6]; cats with compromised kidney function, 2 mg/kg subcutaneous daily 14 days) of the same molecule?
Answer: unable to stimulate appetite

Question: What about the “drug accumulation (pharmacokinetic profiles)” value ([6]; cats with compromised kidney function, IV 0.75 mg/kg once or SC 2 mg/kg daily 14 days) of the same molecule?
Answer: no evidence of drug accumulation

Question: What about the “IGF-1 Serum Levels, Mean Levels (SEM)” value ([7]; 2 mg/kg once daily, Day 30) of the same molecule?
Answer: 855.60 ± 72.74 ng/mL

Question: What about the “IGF-1 Serum Levels, Change over baseline (Day 0)” value (“IGF-1 Serum Levels, Change” for short) ([7]; 2 mg/kg once daily, Day 30, L-tartrate) of the same molecule?
Answer: 274.60 ± 49.06 ng/mL

Question: What about the “IGF-1 Serum Levels, Change” value ([7]; 2 mg/kg once daily, Day 60) of the same molecule?
Answer: 195.64 ± 40.70 ng/mL

Question: And the “IGF-1 Serum Levels, Mean Levels (SEM)” value ([7]; 2 mg/kg once daily, Day 60)?
Answer: 752.55 ± 56.89 ng/mL

Question: And the “IGF-1 Serum Levels, Change” value ([7]; 2 mg/kg once daily, Day 90)?
Answer: 163.82 ± 52.74 ng/mL

Question: What about the “IGF-1 Serum Levels, Mean Levels (SEM)” value ([7]; 2 mg/kg once daily, Day 90) of the same molecule?
Answer: 720.73 ± 65.70 ng/mL

Question: What about the “IGF-1 Serum Levels, Mean Levels (SEM)” value ([7]; capromorelin group, Day 0 (baseline)) of the same molecule?
Answer: 556.91 ± 64.30 ng/mL
